The values below come from ChEMBL document CHEMBL2163248, “Classification of inhibitors of hepatic organic anion transporting polypeptides (OATPs): influence of protein expression on drug-drug interactions” (J Med Chem, 2012).

Each structure is given as a SMILES string.

The target of data set [1] is T1, Solute carrier organic anion transporter family member 2B1 (Homo sapiens, UniProt O94956).
T1 sequence (O94956 whole entry): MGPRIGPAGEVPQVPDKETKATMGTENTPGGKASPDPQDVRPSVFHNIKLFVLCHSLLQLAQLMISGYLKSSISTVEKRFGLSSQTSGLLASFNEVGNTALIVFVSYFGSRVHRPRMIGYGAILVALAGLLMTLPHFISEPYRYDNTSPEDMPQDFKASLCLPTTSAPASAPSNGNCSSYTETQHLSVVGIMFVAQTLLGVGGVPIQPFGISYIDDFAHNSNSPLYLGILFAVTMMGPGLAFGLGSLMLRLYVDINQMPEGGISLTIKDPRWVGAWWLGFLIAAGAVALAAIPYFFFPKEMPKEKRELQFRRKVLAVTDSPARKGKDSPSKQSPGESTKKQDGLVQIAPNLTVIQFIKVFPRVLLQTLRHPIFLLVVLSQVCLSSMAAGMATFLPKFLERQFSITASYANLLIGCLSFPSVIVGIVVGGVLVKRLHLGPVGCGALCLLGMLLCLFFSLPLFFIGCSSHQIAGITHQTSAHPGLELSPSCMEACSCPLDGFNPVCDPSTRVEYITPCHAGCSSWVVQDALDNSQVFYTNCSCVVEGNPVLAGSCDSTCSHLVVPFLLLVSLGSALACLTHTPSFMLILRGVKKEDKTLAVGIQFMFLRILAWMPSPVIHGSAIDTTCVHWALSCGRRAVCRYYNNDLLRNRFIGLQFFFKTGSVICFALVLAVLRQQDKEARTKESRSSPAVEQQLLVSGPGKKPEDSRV
As to the kind of experiment: Inhibition of human liver OATP2B1 expressed in HEK293 Flp-In cells assessed as reduction in [3H]E3S uptake at 20 uM incubated for 5 mins by scintillation counting. The conditions noted are these: hek293, 5 min.

The target of data set [2] is T2, Solute carrier organic anion transporter family member 1B1 (Homo sapiens, UniProt Q9Y6L6).
T2 sequence (Q9Y6L6 whole entry): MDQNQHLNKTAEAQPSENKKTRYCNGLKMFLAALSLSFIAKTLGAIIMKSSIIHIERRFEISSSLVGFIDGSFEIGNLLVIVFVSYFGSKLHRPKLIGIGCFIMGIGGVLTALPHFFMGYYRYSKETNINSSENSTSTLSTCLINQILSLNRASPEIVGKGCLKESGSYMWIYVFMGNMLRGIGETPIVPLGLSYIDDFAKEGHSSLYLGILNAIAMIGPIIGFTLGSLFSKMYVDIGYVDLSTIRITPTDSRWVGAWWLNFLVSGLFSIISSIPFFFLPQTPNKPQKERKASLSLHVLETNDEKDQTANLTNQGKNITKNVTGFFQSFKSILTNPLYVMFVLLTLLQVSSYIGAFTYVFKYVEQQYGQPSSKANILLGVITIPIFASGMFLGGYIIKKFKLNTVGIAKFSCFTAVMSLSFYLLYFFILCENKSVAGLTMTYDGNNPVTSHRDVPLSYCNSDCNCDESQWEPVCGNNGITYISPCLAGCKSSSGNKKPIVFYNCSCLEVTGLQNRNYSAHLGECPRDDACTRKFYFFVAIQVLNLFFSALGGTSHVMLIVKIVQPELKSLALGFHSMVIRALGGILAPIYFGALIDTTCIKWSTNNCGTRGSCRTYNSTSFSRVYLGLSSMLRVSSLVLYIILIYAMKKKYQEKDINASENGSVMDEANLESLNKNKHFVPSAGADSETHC
Description: Inhibition of human liver OATP1B1 expressed in HEK293 Flp-In cells assessed as reduction in E17-betaG uptake at 20 uM by scintillation counting. The conditions noted are these: hek293, 20 µM.

Data set [3] deals with T3, Solute carrier organic anion transporter family member 1B3 (Homo sapiens, UniProt Q9NPD5).
T3 sequence (Q9NPD5 whole entry): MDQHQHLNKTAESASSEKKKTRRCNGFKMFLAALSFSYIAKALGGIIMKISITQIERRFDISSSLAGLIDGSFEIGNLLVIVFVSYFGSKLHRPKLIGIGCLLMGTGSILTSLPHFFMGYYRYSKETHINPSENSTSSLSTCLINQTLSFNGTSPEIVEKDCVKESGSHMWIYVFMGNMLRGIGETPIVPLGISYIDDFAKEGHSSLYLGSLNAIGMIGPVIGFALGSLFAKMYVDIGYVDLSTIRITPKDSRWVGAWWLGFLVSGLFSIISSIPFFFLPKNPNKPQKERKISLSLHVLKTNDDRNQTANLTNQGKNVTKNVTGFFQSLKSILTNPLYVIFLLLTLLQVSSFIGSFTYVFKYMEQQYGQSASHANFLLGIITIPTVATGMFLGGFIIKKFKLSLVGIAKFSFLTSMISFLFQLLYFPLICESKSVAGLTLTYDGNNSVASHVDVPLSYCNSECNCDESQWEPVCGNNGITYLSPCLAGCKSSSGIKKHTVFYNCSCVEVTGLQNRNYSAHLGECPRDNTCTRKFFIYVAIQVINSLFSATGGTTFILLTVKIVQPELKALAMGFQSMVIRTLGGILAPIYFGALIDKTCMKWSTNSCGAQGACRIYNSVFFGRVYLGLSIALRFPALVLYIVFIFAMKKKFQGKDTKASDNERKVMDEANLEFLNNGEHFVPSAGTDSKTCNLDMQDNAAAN
As to the kind of experiment: Inhibition of human liver OATP1B3 expressed in HEK293 Flp-In cells assessed as reduction in [3H]E17-betaG uptake at 20 uM incubated for 5 mins by scintillation counting. To be noted: hek293, 5 min.

As to `C[C@]12C=CC(=O)C=C1CC[C@@H]1[C@@H]2[C@@H](O)C[C@@]2(C)[C@H]1CC[C@]2(O)C(=O)CO` [PREDNISOLONE], the figures for the INH in data set [1], in data set [2] and in data set [3] were 27.6%, 2.3% and 9.6%, respectively.

`CCN(CC)CCNC(=O)c1ccc(N)cc1` [PROCAINAMIDE]: the results for the INH in data set [1], in data set [2] and in data set [3] were 17.8%, 21.6% and 3.4%, respectively.

For `CC(=O)[C@H]1CC[C@H]2[C@@H]3CCC4=CC(=O)CC[C@]4(C)[C@H]3CC[C@]12C` [PROGESTERONE], the INH in data set [1] was -362.6%; in data set [2], 63.9%; in data set [3], 33.4%.

For the molecule `CC(C)NCC(O)COc1cccc2ccccc12` (centres undefined) [PROPRANOLOL], the INH in data set [1] stood at 10.1%; in data set [2], 8.9%; in data set [3], 12.8%.

In the case of `O=c1c(O)c(-c2ccc(O)c(O)c2)oc2cc(O)cc(O)c12` [QUERCETIN], the INH in data set [1] is reported as 72.6%; in data set [2] it was 77%; in data set [3] it was 21.6%.

In the case of `COc1ccccc1OCC(O)CN1CCN(CC(=O)Nc2c(C)cccc2C)CC1` (centres undefined) [RANOLAZINE], the INH in data set [1] was 41.6%; in data set [2] it was 4.3%; in data set [3], -14.9%.

As for `CCOc1cc(CC(=O)N[C@@H](CC(C)C)c2ccccc2N2CCCCC2)ccc1C(=O)O` [REPAGLINIDE], the INH in data set [1] was determined as 42.2%; in data set [2], 88.4%; in data set [3], 83.2%.

`CO[C@H]1/C=C/O[C@@]2(C)Oc3c(C)c(O)c4c(O)c(c(/C=N/N5CCN(C)CC5)c(O)c4c3C2=O)NC(=O)/C(C)=C\C=C\[C@H](C)[C@H](O)[C@@H](C)[C@@H](O)[C@@H](C)[C@H](OC(C)=O)[C@@H]1C` [RIFAMPIN]: the values for the INH in data set [1], in data set [2] and in data set [3] were 21.2%, 88.3% and 101.7%, respectively.

`CO[C@H]1/C=C/O[C@@]2(C)Oc3c(C)c(O)c4c(O)c(cc(O)c4c3C2=O)NC(=O)/C(C)=C\C=C\[C@H](C)[C@H](O)[C@@H](C)[C@@H](O)[C@@H](C)[C@H](OC(C)=O)[C@@H]1C` [RIFAMYCIN]: the figures for the INH in data set [1], in data set [2] and in data set [3] were 74.8%, 95.4% and 101.4%, respectively.

With `CN(CCOc1ccc(CC2SC(=O)NC2=O)cc1)c1ccccn1` (centres undefined) [ROSIGLITAZONE], the INH in data set [1] is given as 10%; in data set [2], 79.1%; in data set [3] it was -32.1%.

As for `CC(C)c1nc(N(C)S(C)(=O)=O)nc(-c2ccc(F)cc2)c1/C=C/[C@@H](O)C[C@@H](O)CC(=O)O` [ROSUVASTATIN], the INH in data set [1] is 51.2%; in data set [2], 71.4%; in data set [3], 55.4%.

With `CC(C)NCC(O)c1ccc(NS(C)(=O)=O)cc1` (centres undefined) [SOTALOL], the INH in data set [1] is reported as 19%; in data set [2] it was 46.4%; in data set [3] it was 6.6%.

In the case of `CC(=O)S[C@@H]1CC2=CC(=O)CC[C@]2(C)[C@H]2CC[C@@]3(C)[C@@H](CC[C@@]34CCC(=O)O4)[C@H]12` [SPIRONOLACTONE], the INH is listed as -82% in data set [1], 88.3% in data set [2] and -34.2% in data set [3].

`O=C(O)c1cc(/N=N/c2ccc(S(=O)(=O)Nc3ccccn3)cc2)ccc1O` [SULFASALAZINE]: the INH in data set [1] is reported as 92.3%; in data set [2], 92.1%; in data set [3] it was 72.1%.

For `O=C1OC(c2ccc(O)c(S(=O)(=O)[O-])c2)(c2ccc(O)c(S(=O)(=O)[O-])c2)c2c(Br)c(Br)c(Br)c(Br)c21.[Na+].[Na+]` [SULFOBROMOPHTHALEIN SODIUM], the INH in data set [1] stood at 69.3%; in data set [2], 94.1%; in data set [3] it was 74.9%.

Take `C[C@H](CCC(=O)NCCS(=O)(=O)O)[C@H]1CC[C@H]2[C@@H]3[C@H](O)C[C@@H]4C[C@H](O)CC[C@]4(C)[C@H]3CC[C@]12C` [TAUROCHENODEOXYCHOLATE]: the INH worked out at 47.2% in data set [1], 89.5% in data set [2] and 82.4% in data set [3].

On to `C[C@H](CCC(=O)NCCS(=O)(=O)O)[C@H]1CC[C@H]2[C@@H]3CC[C@@H]4C[C@H](O)CC[C@]4(C)[C@H]3CC[C@]12C` [TAUROLITHOCHOLIC ACID], for which the results for the INH in data set [1], in data set [2] and in data set [3] were 94.6%, 97.8% and 89.8%, respectively.

For the molecule `C[C@H](Cn1cnc2c(N)ncnc21)OCP(=O)(O)O` [TENOFOVIR ANHYDROUS], the figures for the INH in data set [1], in data set [2] and in data set [3] were 23.3%, 18.4% and 33.6%, respectively.

Take `CC(C)(C)c1ccc(C(O)CCCN2CCC(C(O)(c3ccccc3)c3ccccc3)CC2)cc1` (centres undefined) [TERFENADINE]: the INH in data set [1] was determined as 3.7%; in data set [2], 42.7%; in data set [3], 33.3%.

As for `CN(C)[C@@H]1C(O)=C(C(N)=O)C(=O)[C@@]2(O)C(O)=C3C(=O)c4c(O)cccc4[C@@](C)(O)[C@H]3C[C@@H]12` [TETRACYCLINE], the INH in data set [1] is on record as 51.1%; in data set [2] it was 22.1%; in data set [3], 29.5%.

In the case of `CC[N+](CC)(CC)CC` [TETRYLAMMONIUM], the results for the INH in data set [1], in data set [2] and in data set [3] were 6.7%, 25.9% and 4.9%, respectively.

For `Cn1c(=O)c2[nH]cnc2n(C)c1=O.O` [THEOPHYLLINE], the INH in data set [1] was -25.5%; in data set [2] it was 0.8%; in data set [3] it was 2.5%.

With `CSc1ccc2c(c1)N(CCC1CCCCN1C)c1ccccc1S2` (centres undefined) [THIORIDAZINE], the INH in data set [1] is recorded as 21.5%; in data set [2], 26.1%; in data set [3] it was 25.2%.

Regarding `S=P(N1CC1)(N1CC1)N1CC1` [THIOTEPA], the INH is recorded as 16.2% in data set [1], -40.3% in data set [2] and 0.6% in data set [3].

As to `Clc1ccccc1CN1CCc2sccc2C1` [TICLOPIDINE], the results for the INH in data set [1], in data set [2] and in data set [3] were 23%, 19.4% and 0.2%, respectively.

For `CCCCNC(=O)NS(=O)(=O)c1ccc(C)cc1` [TOLBUTAMIDE], the INH in data set [1] is on record as 15.5%; in data set [2], 9.1%; in data set [3] it was 5.8%.

With `CC[C@@]1(O)C(=O)OCc2c1cc1n(c2=O)Cc2cc3c(CN(C)C)c(O)ccc3nc2-1` [TOPOTECAN], the INH is on record as -39.2% in data set [1], 36.7% in data set [2] and 17.3% in data set [3].

Consider `Cc1nnc2n1-c1ccc(Cl)cc1C(c1ccccc1Cl)=NC2` [TRIAZOLAM], for which the results for the INH in data set [1], in data set [2] and in data set [3] were -20.5%, 45.7% and 18.7%, respectively.
